Patent US20120065165A1, “COMPOSITIONS AND METHODS OF TREATING ENDOTHELIAL DISORDERS” (ARGINETIX, INC, priority 2008, published 2012)

How the values were obtained:
diabetic ZDF rats = assay: ABH plus PDE5 inhibitor in diabetic ZDF rats: erectile function and vasorelaxation (Example 8); assay type: in vivo, rat; conditions: ABH alone
Protocol: The effects of ABH and PDE5 inhibitors, singly and in combination, in the ZDF model of type 2 diabetes are tested.
ZLC rats are maintained on a normal diet. […] Ten to twenty minutes prior to each in vivo vasorelaxation experiment, animals will receive a single intravenous dose of the PDE5 inhibitor, sildenafil citrate (Viagra; either 1 or 2 mg/kg iv) or vehicle alone. […] Peak intracavernous pressure, ICP/mean arterial pressure (MAP), and total ICP (area under the erectile curve) are determined in response to intra-cavernous administration of the endothelium-dependent vasodilator ACh, and in response to direct cavernous nerve stimulation. Animals will then be euthanized, and aortas and penile vascular tissues are collected. Biochemical (arginase, NO, eNOS, ROS) and functional (contraction and relaxation in organ baths) indicators of endothelial health are determined in aortic rings and cavernous strips.

[1] = tested on: tissue explants from diabetic ZDF rats; assay: Ex vivo ABH treatment of tissue explants from type 2 diabetic ZDF rats (Example 6); assay type: cell-based, rat; conditions: vs ZLC rats
From the text: Biochemical and functional parameters of endothelial functions in a model of type 2 diabetes (Zucker Diabetic Fatty (ZDF) Rats) and in a control rat strain (Zucker Lean Control (ZLC) rat), are used to investigate the ex vivo effectiveness of ABH in improving these parameters. Vascular arginase activity and its role in the development of diabetic endothelial pathology have been previously characterized in models of Type 1 diabetes (Jelodar, et al., 2007 J. Reprod. Dev. 53: 317-321; Romero, et al., 2008 Circ. Res. 102: 95-102). […] Vascular endothelial function is measured using organ chambers in isolated rat arterial rings and in strips of erectile tissue collected from each rat strain.
ZDF rats have a mutation in the gene for the leptin receptor. […] Arginase I and II and eNOS mRNA and protein concentrations in these tissues are determined by RT-PCR and Western blot, respectively. Arginase activity is measured, as described in Example 4, by homogenizing the rat vessels in lysis buffer, removing cellular debris by centrifugation, and monitoring the hydrolysis of L-arginine using calorimetric determination of urea after the addition of isonitrosopropiophenone. […] The cellular location of arginase in this model of type 2 diabetes is determined by comparing the results of RT-PCR, Western blot, and arginase activity assays in endothelial-intact and endothelial-denuded aortic rings. […]

arginase II = target: T1, arginase II (Homo sapiens, UniProt P78540); conditions: cited from earlier work
T1 sequence (P78540 23-354): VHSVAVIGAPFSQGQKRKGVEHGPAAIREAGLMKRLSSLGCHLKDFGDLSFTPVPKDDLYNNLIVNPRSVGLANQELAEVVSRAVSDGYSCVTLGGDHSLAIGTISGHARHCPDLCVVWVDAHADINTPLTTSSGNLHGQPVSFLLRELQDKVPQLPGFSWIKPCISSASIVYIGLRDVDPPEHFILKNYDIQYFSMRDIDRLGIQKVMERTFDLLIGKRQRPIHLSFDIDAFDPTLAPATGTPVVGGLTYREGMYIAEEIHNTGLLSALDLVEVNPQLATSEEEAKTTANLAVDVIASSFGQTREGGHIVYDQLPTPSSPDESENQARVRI

N[C@@H](CCCCB(O)O)C(=O)O [ABH, 2(S)-Amino-6-boronohexanoic acid]
erectile function (diabetic ZDF rats): some positive effects | biochemical (arginase activity, NO, ROS) and functional (vascular endothelial, erectile) parameters [1]: return these biochemical and functional parameters to values that are similar to those of ZLC rats | potency as inhibitor of arginase II (arginase II): most potent inhibitor
